Measurements: article PMC7093421, “Perfluorooctane sulfonate (PFOS) and perfluorooctanoate (PFOA) acutely affect human α1β2γ2L GABAA receptor and spontaneous neuronal network function in vitro” (Scientific Reports, 2020)

Biological target: T1, human α1β2γ2L GABAA receptor (Homo sapiens, UniProt P14867+P18507+P47870)
T1 construct: gene GABRA1; α1β2γ2L receptor expressed in Xenopus laevis oocytes; with GABRB2 (β2) and GABRG2 (γ2L) subunits
Test: two-electrode voltage clamp in Xenopus oocytes, inhibition of GABA-evoked current ([…] GABA)
Assay type: cell-based

T1 sequence (P14867 28-456): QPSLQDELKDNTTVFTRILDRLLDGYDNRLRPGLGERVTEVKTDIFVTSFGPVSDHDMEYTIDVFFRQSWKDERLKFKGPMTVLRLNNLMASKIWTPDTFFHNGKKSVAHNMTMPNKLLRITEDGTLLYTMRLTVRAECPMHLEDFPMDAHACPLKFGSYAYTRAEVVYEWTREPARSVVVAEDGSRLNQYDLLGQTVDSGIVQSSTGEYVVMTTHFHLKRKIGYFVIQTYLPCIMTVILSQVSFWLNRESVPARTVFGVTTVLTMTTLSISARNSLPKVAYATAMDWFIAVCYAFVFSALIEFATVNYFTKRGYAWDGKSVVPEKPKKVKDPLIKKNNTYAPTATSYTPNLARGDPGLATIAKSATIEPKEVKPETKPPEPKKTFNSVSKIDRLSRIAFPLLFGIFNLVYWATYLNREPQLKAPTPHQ
T1 sequence (P47870 26-512): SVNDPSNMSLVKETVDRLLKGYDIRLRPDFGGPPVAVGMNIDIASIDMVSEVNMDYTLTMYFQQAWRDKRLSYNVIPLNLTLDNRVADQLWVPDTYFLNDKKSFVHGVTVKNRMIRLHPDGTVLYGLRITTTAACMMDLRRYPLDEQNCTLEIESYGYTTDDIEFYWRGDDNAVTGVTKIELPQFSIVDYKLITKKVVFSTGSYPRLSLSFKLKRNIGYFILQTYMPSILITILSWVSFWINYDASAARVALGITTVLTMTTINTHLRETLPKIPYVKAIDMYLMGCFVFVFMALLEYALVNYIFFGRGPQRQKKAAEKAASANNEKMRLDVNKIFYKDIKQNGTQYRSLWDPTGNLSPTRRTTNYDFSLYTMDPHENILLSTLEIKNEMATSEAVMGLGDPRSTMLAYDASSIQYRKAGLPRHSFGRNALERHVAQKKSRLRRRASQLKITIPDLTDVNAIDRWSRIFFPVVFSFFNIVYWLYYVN
T1 sequence (P18507 40-475): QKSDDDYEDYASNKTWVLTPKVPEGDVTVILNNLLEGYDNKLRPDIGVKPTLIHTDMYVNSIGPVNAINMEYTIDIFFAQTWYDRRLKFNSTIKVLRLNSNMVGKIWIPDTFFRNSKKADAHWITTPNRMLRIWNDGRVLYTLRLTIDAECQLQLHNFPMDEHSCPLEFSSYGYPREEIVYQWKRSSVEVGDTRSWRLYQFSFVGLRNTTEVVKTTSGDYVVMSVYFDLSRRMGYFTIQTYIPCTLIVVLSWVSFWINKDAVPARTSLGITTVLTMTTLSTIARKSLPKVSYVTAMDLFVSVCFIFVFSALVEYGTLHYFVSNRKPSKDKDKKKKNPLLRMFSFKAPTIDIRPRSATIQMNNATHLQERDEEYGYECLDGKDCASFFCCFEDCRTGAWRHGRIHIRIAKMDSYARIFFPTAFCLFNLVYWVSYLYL

Structure (SMILES) | IC50 [µM]
O=C(O)C(F)(F)C(F)(F)C(F)(F)C(F)(F)C(F)(F)C(F)(F)C(F)(F)F [PFOA] | 6.7
O=S(=O)(O)C(F)(F)C(F)(F)C(F)(F)C(F)(F)C(F)(F)C(F)(F)C(F)(F)C(F)(F)F [PFOS] | 0.18
